Measurements as given in PMC12186255, “Discovery and Characterization of Small Molecule Inhibitors Targeting Exonuclease 1 for Homologous Recombination-Deficient Cancer Therapy” (ACS Chemical Biology, 2025).

Key:
[1] = test system: MDA-MB-436 (BRCA1+) tumors; assay: In vivo tumor growth assay, xenograft; set-up: species or system mouse; settings: p = 0.64
Method: (§1) The tumor growth rate of human breast cancer cells with or without treatment with EXO1i was evaluated by using a xenograft breast cancer mouse model. […] The tumor volume in each mouse was measured twice a week and calculated using the formula (length × width × width)/2 (mm^3). When the tumors reached a volume of 1000 mm^3, the mice were euthanized. Animal studies were conducted in accordance with an approved protocol adhering to the IACUC policies and procedures of the City of Hope.

[2] = test system: MDA-MB-436 (BRCA1−) tumors; assay: In vivo tumor growth assay, xenograft; set-up: species or system mouse; settings: p = 0.018
Method: as §1

EXO1 = target: T1, EXO1 (Homo sapiens, UniProt Q9UQ84); assay: Thermal shift assay; format: binding; settings: maximum shift in Tm of EXO1 vs DMSO, increasing inhibitor concentrations
T1 construct: made in house
T1 sequence (Q9UQ84 1-846): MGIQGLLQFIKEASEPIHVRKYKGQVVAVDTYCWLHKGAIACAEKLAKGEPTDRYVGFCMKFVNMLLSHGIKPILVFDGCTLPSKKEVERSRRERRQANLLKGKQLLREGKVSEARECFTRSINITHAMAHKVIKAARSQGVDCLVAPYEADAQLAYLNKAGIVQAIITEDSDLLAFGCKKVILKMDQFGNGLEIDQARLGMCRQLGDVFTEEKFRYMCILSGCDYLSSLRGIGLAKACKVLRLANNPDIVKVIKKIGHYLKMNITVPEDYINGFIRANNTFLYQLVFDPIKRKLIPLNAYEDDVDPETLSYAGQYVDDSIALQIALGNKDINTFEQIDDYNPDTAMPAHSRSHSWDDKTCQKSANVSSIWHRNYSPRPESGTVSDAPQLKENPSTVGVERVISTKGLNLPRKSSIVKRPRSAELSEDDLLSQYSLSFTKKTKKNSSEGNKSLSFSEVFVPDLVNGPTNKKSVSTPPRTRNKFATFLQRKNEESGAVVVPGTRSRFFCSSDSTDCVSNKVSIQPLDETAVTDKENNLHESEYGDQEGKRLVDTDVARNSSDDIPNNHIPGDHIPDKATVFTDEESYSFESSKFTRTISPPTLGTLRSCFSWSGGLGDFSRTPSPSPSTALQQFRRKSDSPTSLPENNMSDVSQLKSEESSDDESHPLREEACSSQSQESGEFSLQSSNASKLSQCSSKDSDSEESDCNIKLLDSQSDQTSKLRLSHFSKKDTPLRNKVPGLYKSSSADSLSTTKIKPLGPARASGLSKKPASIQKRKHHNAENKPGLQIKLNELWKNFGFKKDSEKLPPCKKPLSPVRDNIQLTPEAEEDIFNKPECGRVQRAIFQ
Method: To assess for changes in the thermal stability of EXO1 protein in response to treatment with candidate small molecule inhibitors or DMSO (vehicle control), the thermal shift assay (Applied Biosystems Protein Thermal Shift Dye Kit, Cat. #4461146) was utilized. The protein melt reaction mix consisted of freshly prepared 10× thermal shift dye, purified EXO1 enzyme (1 μg/uL), thermal shift buffer, DMSO or inhibitors, and sterilized Milli-Q water. A drug-free supermix was premade and dispensed in 96-well PCR plates followed by the addition of DMSO or inhibitors with increasing concentration. The reaction plate was heated from 10 to 98 °C at a rate of 0.5° per 10 s cycle, and the fluorescence intensity of individual wells was measured at 490/530 nm using a BioRad CFX96 Touch Real-Time PCR System. The fluorescence measurements of three technical replicates per treatment condition were then averaged to calculate melting temperature shift (ΔT m) as a readout for compound binding affinity.

UACC-257 = assay: Cell line drug profiling, CellTiter Glo; format: cell-based; settings: Homo sapiens; UACC-257, Melanoma, 72 h
Method: (§2) We tested the cytotoxicity of representative compounds from the seven EXO1i scaffolds against a subset of the NCI-60 cell line panel along with three additional pancreatic cell lines (FG, AsPC1, and CaPan2). In general, cells were seeded in 384-well tissue culture-treated plates overnight and treated with various concentrations of each hit compound (a serial 3-fold dilution from 50 μM for all tested hits). Each concentration was performed in duplicate. Cell viability was then measured by CellTiter Glo (Promega) after 72 h of treatment.

OVCAR-5 = assay: Cell line drug profiling, CellTiter Glo; format: cell-based; settings: Homo sapiens; OVCAR-5, Ovarian, 72 h
Method: as §2

OVCAR-8 = assay: Cell line drug profiling, CellTiter Glo; format: cell-based; settings: Homo sapiens; OVCAR-8, Ovarian, 72 h
Method: as §2

H23 = assay: Cell line drug profiling, CellTiter Glo; format: cell-based; settings: Homo sapiens, NCI-H23; H23, Lung, 72 h
Method: as §2

PC3 = assay: Cell line drug profiling, CellTiter Glo; format: cell-based; settings: Homo sapiens, PC-3; PC3, Prostate, 72 h
Method: as §2

DU145 (B3) = assay: Cell line drug profiling, CellTiter Glo; format: cell-based; settings: Homo sapiens, DU-145, Prostate, 72 h
Method: as §2

T-47D = assay: Cell line drug profiling, CellTiter Glo; format: cell-based; settings: Homo sapiens, T47D, Breast, 72 h
Method: as §2

U251 = assay: Cell line drug profiling, CellTiter Glo; format: cell-based; settings: Homo sapiens, U-251; U251, Central Nervous System, 72 h
Method: as §2

DU145 = assay: Cell line drug profiling, CellTiter Glo; format: cell-based; settings: Homo sapiens, DU-145; DU145, Prostate, 72 h
Method: as §2

NCI/ADR-RES = assay: Cell line drug profiling, CellTiter Glo; format: cell-based; settings: Homo sapiens, Ovarian, 72 h
Method: as §2

SKOV-3 = assay: Cell line drug profiling, CellTiter Glo; format: cell-based; settings: Homo sapiens, SK-OV-3; SKOV-3, Ovarian, 72 h
Method: as §2

SNB-19 = assay: Cell line drug profiling, CellTiter Glo; format: cell-based; settings: Homo sapiens; SNB-19, Central Nervous System, 72 h
Method: as §2

IGR-OV1 = assay: Cell line drug profiling, CellTiter Glo; format: cell-based; settings: Homo sapiens, IGROV-1; IGR-OV1, Ovarian, 72 h
Method: as §2

OVCAR-4 = assay: Cell line drug profiling, CellTiter Glo; format: cell-based; settings: Homo sapiens; OVCAR-4, Ovarian, 72 h
Method: as §2

[3] = 8.5 mg/kg daily intraperitoneal

Row | SMILES | average growth rate of BRCA1+ tumors ([1]; 8.5 mg/kg body weight/day intraperitoneal, NSG mice, vehicle 16.6) [%/day] | tumor volumes compared with vehicle, BRCA1+ tumors [1, 3] | average growth rate of BRCA1– tumors ([2]; 8.5 mg/kg body weight/day intraperitoneal, NSG mice, vehicle […]) [%/day] | tumor volumes compared with vehicle, BRCA1- mouse models [2, 3] | ΔT m (EXO1) [°C] | IC50 (UACC-257) [µM] | IC50 (OVCAR-5) [µM] | IC50 (OVCAR-8) [µM] | IC50 (H23) [µM] | IC50 (PC3) [µM] | IC50 (DU145 (B3)) [µM] | IC50 (T-47D) [µM] | IC50 (U251) [µM] | IC50 (DU145) [µM] | IC50 (NCI/ADR-RES) [µM] | IC50 (SKOV-3) [µM] | IC50 (SNB-19) [µM] | IC50 (IGR-OV1) [µM] | IC50 (OVCAR-4) [µM]
1 | Cc1cccc(N2CCN(c3ccc(NS(=O)(=O)c4ccccc4)c(C(=O)O)c3)CC2)c1C [F684] | 15.1 | no effect | 11.3 | significantly reduced tumor volumes | – | – | – | – | – | – | – | – | – | – | – | – | – | – | –
2 | COC(=O)c1nc(-c2ccc(OC)cc2)nc(O)c1O [C200] | – | – | – | – | ~1 | > 50 | > 50 | > 50 | > 50 | > 50 | > 50 | > 50 | > 50 | 49.4 | > 50 | > 50 | > 50 | > 50 | > 50
